From patent US20070128217A1 (priority 2003, published 2007)

Experiments:
[1] = tested on: antibodies in sera from SARS patients (sera 1a, 1b, 2, 6, 37, 62, London, SARS-yellow, SARS-green); type: binding, human; parameters: Binding of serum 6 to linear peptides of protein X1 of SARS-CoV Urbani / Binding of serum 37 to linear peptides of protein X1 of SARS-CoV Urbani / Binding of serum 6 to looped/cyclic peptide (PEPSCAN-ELISA) / Binding of serum 37 to looped/cyclic peptide (PEPSCAN-ELISA) / Binding of serum 37 to looped/cyclic peptides of protein X1 of SARS-CoV Urbani / Binding of serum 6 to linear peptides of protein X2 / Binding of serum 37 to linear peptides of protein X2 / Binding of serum 37 to looped/cyclic peptides of protein X2 of SARS-CoV Urbani / Binding of serum 6 to linear peptides of protein M of SARS-CoV Urbani / Binding of serum 37 to linear peptides of protein M of SARS-CoV Urbani / Binding of serum 6 to looped/cyclic peptides of protein M of SARS-CoV Urbani / Binding of serum 37 to looped/cyclic peptides of protein M of SARS-CoV Urbani / Binding of serum 6 to linear peptides of protein X3 of SARS-CoV Urbani / Binding of serum 37 to linear peptides of protein X3 of SARS-CoV Urbani / Binding of serum 37 to looped/cyclic peptides of protein X3 of SARS-CoV Urbani / Binding of serum 6 to linear peptides of protein X4 of SARS-CoV Urbani / Binding of serum 37 to linear peptides of protein X4 of SARS-CoV Urbani / Binding of serum 37 to looped/cyclic peptides of protein X4 of SARS-CoV Urbani / Binding of serum 6 to linear peptides of protein X5 of SARS-CoV Urbani / Binding of serum 37 to linear peptides of protein X5 of SARS-CoV Urbani / Binding of serum 37 to looped/cyclic peptides of protein X5 of SARS-CoV Urbani / Binding of serum 6 to linear peptides of protein N of SARS-CoV Urbani / Binding of serum 37 to linear peptides of protein N of SARS-CoV Urbani / Binding of serum 6 to linear peptide (PEPSCAN-ELISA) / Binding of serum 1a to looped/cyclic peptides of protein N of SARS-CoV Urbani / Binding of serum 1b to looped/cyclic peptides of protein N of SARS-CoV Urbani / Binding of serum 2 to looped/cyclic peptides of protein N of SARS-CoV Urbani / Binding of serum 6 to looped/cyclic peptides of protein N of SARS-CoV Urbani / Binding of serum 37 to looped/cyclic peptides of protein N of SARS-CoV Urbani / Binding of serum 62 to looped/cyclic peptides of protein N of SARS-CoV Urbani / Binding of serum London to looped/cyclic peptides of protein N of SARS-CoV Urbani / Binding of serum SARS-green to looped/cyclic peptides of protein N of SARS-CoV Urbani: unit not given here
[2] = tested on: control sera (pooled serum of ten healthy LUMC hospital workers; commercial negative donor pooled serum from the Dutch bloodbank); type: binding, human
[3] = tested on: rabbit serum obtained by immunizing a rabbit with the SARS-CoV strain Frankfurt 1; type: binding; parameters: Binding of a rabbit serum to linear peptides / Binding of a rabbit serum to looped peptides / Rabbit serum linear peptides / Rabbit serum looped peptides / Binding of a rabbit serum to linear peptides of protein N of SARS-CoV Urbani (Rabbit serum linear peptides) / Binding of a rabbit serum to looped/cyclic peptides of protein N of SARS-CoV Urbani (Rabbit serum looped peptides): unit not given here

Sequence	Binding of serum 1a to linear peptides of protein X2 [1]	Binding of serum 1a to looped/cyclic peptides of protein X2 of SARS-CoV Urbani [1]	Binding of serum 1b to linear peptides of protein X2 [1]	Binding of serum 1b to looped/cyclic peptides of protein X2 of SARS-CoV Urbani [1]	Binding of serum 2 to linear peptides of protein X2 [1]	Binding of serum 2 to looped/cyclic peptides of protein X2 of SARS-CoV Urbani [1]	Binding of serum 6 to linear peptides of protein X2 [1]	Binding of serum 6 to looped/cyclic peptides of protein X2 of SARS-CoV Urbani [1]	Binding of serum 37 to linear peptides of protein X2 [1]	Binding of serum 37 to looped/cyclic peptides of protein X2 of SARS-CoV Urbani [1]	Binding of serum 62 to looped/cyclic peptides of protein X2 of SARS-CoV Urbani [1]	Binding of serum London to looped/cyclic peptides of protein X2 of SARS-CoV Urbani [1]	Binding of serum SARS-green to looped/cyclic peptides of protein X2 of SARS-CoV Urbani [1]	Binding of serum SARS-yellow to looped/cyclic peptides of protein X2 of SARS-CoV Urbani [1]	Binding of Control Serum Blood-Bank to Looped peptides [2]	Binding of Control serum Blood-bank to linear peptides [2]	Binding of Control serum LUMC to linear peptides [2]	Binding of Control serum LUMC to looped peptides [2]	Binding of a rabbit serum to linear peptides [3]	Binding of a rabbit serum to looped peptides [3]	other results
SSSLTSLLKTHRMCK	0.6	0.3	0.5	0.4	0.4	0.1	0.8	0.1	0.6	0.2	0.3	0.1	0.3	0.5	0.4	1.0	0.7	0.4	0.3	0.2	Binding of serum 62 to linear peptides of protein X2 [1]: 0.7; Binding of serum London to linear peptides of protein X2 [1]: 0.6; Binding of serum SARS-green to linear peptides of protein X2 [1]: 0.6; Binding of serum SARS-yellow to linear peptides of protein X2 [1]: 0.2
STALQELLIQQWIQF	0.6	0.6	0.4	0.5	0.3	0.4	0.3	0.2	0.5	0.4	0.6	0.2	0.3	0.5	0.6	0.6	0.3	0.7	0.3	0.4	Binding of serum 62 to linear peptides of protein X2 [1]: 0.6; Binding of serum London to linear peptides of protein X2 [1]: 0.4; Binding of serum SARS-green to linear peptides of protein X2 [1]: 0.5; Binding of serum SARS-yellow to linear peptides of protein X2 [1]: 0.3
STNLCTHSFRKKQVR		0.5		0.3		0.5		0.6		0.5	0.5	0.2	0.2	0.5	0.5	0.9	0.8	0.8	0.7	0.2	Recognition of the peptide by sera of SARS-CoV infected individuals, and form (linear, looped/cyclic) in which it is recognized [1]: recognized in linear form
